Results: patent publication US4554367A, “Phosphonium organohalogenostannates-IV” (priority 1982, dated 1985)

Key:
Venturia inaequalis = assay: Residual protective action against Venturia inaequalis on apple shoots; type: in vivo; settings: 0.02% of active substance, 15 days after infection
Procedure: Residual protective action against Venturia inaequalis on apple shoots
Apple cuttings with fresh shoots 10-20 cm long were sprayed with a spray liquor (0.02% of active substance) prepared from a wettable powder of the active substance. After 24 hours, the treated plants were infected with a conidia suspension of the fungus. The plants were then incubated at 90-100% relative atmospheric humidity for 5 days and were placed in a greenhouse at 20°-24° C. for 10 further days. The scab attack was evaluated 15 days after the infection. Compounds nos. 18, 5 and 9 and others inhibited the disease attack to less than 10%.

Chaetomium globosum = assay: MIC against fungi, strain O; type: cell-based; settings: malt extract agar
Procedure: (§1) Determination of the minimum inhibitory concentration (MIC) against fungi
(§2) The investigation is carried out in malt extract agar (Merck) by the known agar incorporation test using the fungi
(§3) For inhibition, the various compounds are in each case added in amounts such that concentrations of […] results in the agar. The concentrations (mg/liter) required for inhibition of the growth of the fungi (starting from traces of fungi dripped on) are illustrated in Table D.

Pseudomonas aeruginosa = assay: MIC against bacteria, strain B; type: cell-based; settings: 24 h, 30° C., tested at 100 or 300 mg/liter
Procedure: (§4) Determination of the minimum inhibitory concentration (MIC) against bacteria
(§5) ONCs (cultures incubated overnight) of the bacteria strains A-F grown in Caso-Peptone broth (Merck) are each diluted […] in saline. An amount of the suspension is introduced into Caso-Peptone broth such that the bacteria are again diluted 1:1,000. The cultures are treated with 100 or 300 mg/liter of the phosphonium stannates shown in Table B. After incubation at 30° C. in a shaking water bath for 24 hours, the cultures are evaluated on the basis of cloudiness. The MIC is the concentration at which the broth is not clouded by bacterial growth.

Bacillus subtilis = assay: MIC against bacteria, strain F; type: cell-based; settings: 24 h, 30° C., tested at 100 or 300 mg/liter
Procedure: as §4, §5

Proteus vulgaris = assay: MIC against bacteria, strain A; type: cell-based; settings: 24 h, 30° C., tested at 100 or 300 mg/liter
Procedure: as §4, §5

Candida albicans = assay: MIC against fungi, strain L; type: cell-based; settings: malt extract agar
Procedure: as §1, §2, §3

Chlorella vulgaris = assay: Action against Chlorella vulgaris; type: cell-based; parameters: key to Growth in the medium: 1: no growth in the medium, 3 ppm have a growthinhibiting action; key to Growth on the agar: 2: no growth on the agar, 3 ppm have destroyed the algae within 6 hours; settings: 3 mg/liter
Procedure: Determination of the action against algae
A Chlorella vulgaris culture grown for 14 days in algae nutrient medium is diluted 1:200 in algae nutrient medium. Each of the compounds listed in Table E is then added such that a concentration of 3 mg/liter results. After incubation for 6 hours, 10 μl are in each case withdrawn and dripped onto algae agar in order to determine the destructive action.

Artemia salina = assay: Action against Artemia salina; type: in vivo; parameters: key: 0: nauplii not affected; 1: slight change; 1-2: nauplii affected; 2: nauplii severely affected; 2-3: almost all nauplii dead; 3: all nauplii dead
Description: Determination of the action against Artemia salina
The commercially available eggs are caused to hatch under powerful aeration. […]

[1] = tested on: Enteromorpha intestinalis; assay: Action against Enteromorpha intestinalis; type: cell-based
Procedure: (b) Enteromorpha intestinalis
The action against the green alga Enteromorpha most important in sea water fouling is investigated in sterile-filtered sea water containing Erd-Schreiber solution. The solution is composed of a nutrient extract, phosphate and nitrate. Incubation of the Enteromorpha intestinalis takes place in a light thermostat at 18° C. under a 14 hours light/10 hours dark cycle.
The algae grown in this manner are exposed for a short time (4 hours), in sea water, to the products to be investigated. The minimum killing concentration (MKC) is determined by removing the algae from the sea water containing a certain amount of algicide at the end of the period of action, washing them and investigating them for growth or destruction after renewed incubation in fresh sea water for 6 to 8 weeks.
The minimum killing concentration (MKC) is the amount of substance required to harm the alga within a certain period of time to the extent that it can no longer recover in fresh sea water and dies off.
To determine the inhibitory concentration (MIC), the alga is kept in sea water containing biocide throughout the entire duration of the experiment (concentration tested: 0.1 and 0.5 mg/liter).

Endomyces geotrichum = assay: MIC against fungi, strain M; type: cell-based; settings: malt extract agar
Procedure: as §1, §2, §3

Aspergillus niger = assay: MIC against fungi, strain G; type: cell-based; settings: malt extract agar
Procedure: as §1, §2

Penicillium funiculosum = assay: MIC against fungi, strain I; type: cell-based; settings: malt extract agar
Procedure: as §1, §2
I Penicillium funiculosum
as §3

Aspergillus phoenicia = assay: MIC against fungi, strain H; type: cell-based; settings: malt extract agar
Procedure: as §1, §2, §3

[2] = tested on: Cladosporium cladosporioides; assay: MIC against fungi, strain K; type: cell-based; settings: malt extract agar
Procedure: as §1, §2
K Cladosporium cladosporioides
as §3

Enterobacter aerogenes = assay: MIC against bacteria, strain C; type: cell-based; settings: 24 h, 30° C., tested at 100 or 300 mg/liter
Procedure: as §4, §5

[3] = tested on: Alkaligenes denitrificans; assay: MIC against bacteria, strain E; type: cell-based; settings: 24 h, 30° C., tested at 100 or 300 mg/liter
Procedure: as §4, §5

Alternaria alternata = assay: MIC against fungi, strain J; type: cell-based; settings: malt extract agar
Procedure: as §1, §2, §3

Serratia marcenscens = assay: MIC against bacteria, strain D; type: cell-based; settings: 24 h, 30° C., tested at 100 or 300 mg/liter
Procedure: as §4, §5

Aureobasidium pullulans = assay: MIC against fungi, strain N; type: cell-based; settings: malt extract agar
Procedure: as §1, §2
N Aureobasidium pullulans
as §3

**Q.** `CCCCCCCCCCCCCC[P+](CCCC)(CCCC)CCCC.[Cl][Sn-]([Cl])([CH]1CCCCC1)([CH]1CCCCC1)[CH]1CCCCC1` [Example 18, tri-n-bytyl-n-tetradecyl-phosphonium tricyclohexyldichlorostannate] was tested. Which “disease (scab) attack (inhibited to less than)” value (Venturia inaequalis) did it give?
**A.** less than 10%

**Q.** `CCCCCCCCCCCCCC[P+](CCCC)(CCCC)CCCC.[CH3][Sn-]([CH3])([Cl])([Cl])[Cl]` [Example 20] was tested. Which MIC against fungi (Chaetomium globosum) did it give?
**A.** 10 µg/mL

**Q.** And the MIC (Pseudomonas aeruginosa)?
**A.** 100 µg/mL

**Q.** What about the MIC (Bacillus subtilis) of the same molecule?
**A.** 100 µg/mL

**Q.** What about the MIC (Proteus vulgaris) of the same molecule?
**A.** 100 µg/mL

**Q.** What about the MIC against fungi (Candida albicans) of the same molecule?
**A.** 10 µg/mL

**Q.** And the “Growth on the agar” value (Chlorella vulgaris; 6 hours exposure (algae-destruction action))?
**A.** 2

**Q.** What about the “Growth in the medium” value (Chlorella vulgaris; 14 days (inhibition of growth)) of the same molecule?
**A.** 1

**Q.** And the “Action against Artemia salina” value (Artemia salina; 0.25 mg/liter, 6 hours)?
**A.** 0

**Q.** What about the “Action against Artemia salina” value (Artemia salina; 0.25 mg/liter, 24 hours) of the same molecule?
**A.** 1-2

**Q.** What about the “Action against Artemia salina” value (Artemia salina; 0.25 mg/liter, 48 hours) of the same molecule?
**A.** 2-3

**Q.** And the “Action against Artemia salina” value (Artemia salina; 0.5 mg/liter, 6 hours)?
**A.** 1

**Q.** What about the “Action against Artemia salina” value (Artemia salina; 0.5 mg/liter, 24 hours) of the same molecule?
**A.** 2

**Q.** And the “Action against Artemia salina” value (Artemia salina; 0.5 mg/liter, 48 hours)?
**A.** 3

**Q.** What about the “Action against Artemia salina” value (Artemia salina; 1 mg/liter, 6 hours) of the same molecule?
**A.** 2

**Q.** And the “Action against Artemia salina” value (Artemia salina; 1 mg/liter, 24 hours)?
**A.** 2-3

**Q.** What about the “Action against Artemia salina” value (Artemia salina; 1 mg/liter, 48 hours) of the same molecule?
**A.** 3

**Q.** What about the “Action against Artemia salina” value (Artemia salina; 2.5 mg/liter, 6 hours) of the same molecule?
**A.** 1-2

**Q.** And the “Action against Artemia salina” value (Artemia salina; 2.5 mg/liter, 24 hours)?
**A.** 3

**Q.** And the “Action against Artemia salina” value (Artemia salina; 2.5 mg/liter, 48 hours)?
**A.** 3

**Q.** And the “Destruction 5 mg/liter” value ([1]; 5 mg/liter, 4 hours exposure in sea water, re-incubation 6 to 8 weeks)?
**A.** yes

**Q.** What about the MIC ([1]; kept in sea water containing biocide throughout, tested 0.1 and 0.5 mg/liter) of the same molecule?
**A.** > 0.5 µg/mL

**Q.** And the MIC against fungi (Endomyces geotrichum)?
**A.** 10 µg/mL

**Q.** And the MIC against fungi (Aspergillus niger)?
**A.** 50 µg/mL

**Q.** What about the MIC against fungi (Penicillium funiculosum) of the same molecule?
**A.** 10 µg/mL

**Q.** And the MIC against fungi (Aspergillus phoenicia)?
**A.** 50 µg/mL

**Q.** What about the MIC against fungi [2] of the same molecule?
**A.** 10 µg/mL

**Q.** What about the MIC (Enterobacter aerogenes) of the same molecule?
**A.** 100 µg/mL

**Q.** And the MIC [3]?
**A.** 100 µg/mL

**Q.** What about the MIC against fungi (Alternaria alternata) of the same molecule?
**A.** 50 µg/mL

**Q.** What about the MIC (Serratia marcenscens) of the same molecule?
**A.** 100 µg/mL

**Q.** What about the MIC against fungi (Aureobasidium pullulans) of the same molecule?
**A.** 10 µg/mL
